Test results: patent publication US7196110B2, “N-substituted tricyclic 3-aminopyrazoles as inhibitors for the treatment of cell proliferative disorders” (Janssen Phamaceutica N.V., priority 2002, dated 2007)

Target: T1, PDGF-receptor beta enzyme comprising the tyrosine kinase domain (Homo sapiens, UniProt P09619)
T1 construct: from amino acid 545 to 1106 of GenBank Access NO: AAA36427
Test: Inhibition of PDGF-receptor kinase activity (cell-free, PLC1 peptide, 33P Flashplate)
Assay type: biochemical
Settings: PDGF-R kinase activity; for inhibition at 10 µM: compound at 10 uM, read-out: Percent Inhibition @ 10 uM; for IC50: read-out: IC50
Method in brief: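 Recombinant kinase domain (aa 545–1106) phosphorylated a biotinylated PLC1 peptide with 5 μM ATP plus 33P-γ-ATP, in Tris pH 8, MgCl2, Na3VO4 and 1 mM DTT, for 60 min at 30 °C. Retained 33P was counted after washing. IC50 is the concentration halving activity versus no-inhibitor reactions.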

T1 sequence (P09619 545-1106): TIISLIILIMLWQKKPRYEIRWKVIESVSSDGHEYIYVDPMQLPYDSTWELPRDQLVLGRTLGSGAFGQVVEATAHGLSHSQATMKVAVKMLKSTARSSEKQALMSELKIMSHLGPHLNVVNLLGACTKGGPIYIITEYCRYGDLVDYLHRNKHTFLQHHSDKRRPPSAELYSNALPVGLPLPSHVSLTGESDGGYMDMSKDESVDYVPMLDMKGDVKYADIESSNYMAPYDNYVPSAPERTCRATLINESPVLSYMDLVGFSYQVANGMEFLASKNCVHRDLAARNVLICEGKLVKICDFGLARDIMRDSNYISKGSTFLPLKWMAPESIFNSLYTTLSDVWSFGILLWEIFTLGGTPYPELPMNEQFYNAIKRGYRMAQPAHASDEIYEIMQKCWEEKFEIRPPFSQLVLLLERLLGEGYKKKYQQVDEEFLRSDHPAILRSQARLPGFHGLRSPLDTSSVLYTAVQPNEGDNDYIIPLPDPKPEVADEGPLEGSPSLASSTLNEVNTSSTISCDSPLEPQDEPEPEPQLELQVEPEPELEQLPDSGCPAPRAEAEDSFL

Row | inhibition at 10 µM [%] | IC50 [nM] | SMILES
1 | 88 | 68.6 | Fc1cccc(Nc2[nH]nc3c2Cc2cc(Cl)ccc2-3)c1 [Compound 191, (6-Chloro-2,4-dihydro-indeno[1,2-c]pyrazol-3-yl)-(3-fluoro-phenyl)-amine]
2 | 67 | 103 | Fc1ccc(F)c(Nc2[nH]nc3c2Cc2cc(Cl)ccc2-3)c1 [Compound 192, (6-Chloro-2,4-dihydro-indeno[1,2-c]pyrazol-3-yl)-(2,5-difluoro-phenyl)-amine]
3 | 49 | – | FC(F)(F)c1ccc(Nc2[nH]nc3c2Cc2cc(Cl)ccc2-3)cc1 [Compound 193, (6-Chloro-2,4-dihydro-indeno[1,2-c]pyrazol-3-yl)-(4-trifluoromethyl-phenyl)-amine]
4 | 87 | 2610 | FC(F)(F)Oc1ccc(Nc2[nH]nc3c2Cc2cc(Cl)ccc2-3)cc1 [Compound 194, (6-Chloro-2,4-dihydro-indeno[1,2-c]pyrazol-3-yl)-(4-trifluoromethoxy-phenyl)-amine]
5 | 76 | 2280 | FC(F)(F)c1cc(Nc2[nH]nc3c2Cc2cc(Cl)ccc2-3)cc(C(F)(F)F)c1 [Compound 195, (3,5-Bis-trifluoromethyl-phenyl)-(6-chloro-2,4-dihydro-indeno[1,2-c]pyrazol-3-yl)-amine]
6 | 70 | 1290 | CN(C)c1ccc(Nc2[nH]nc3c2Cc2cc(Cl)ccc2-3)cc1 [Compound 196, N-(6-Chloro-2,4-dihydro-indeno[1,2-c]pyrazol-3-yl)-N′,N′-dimethyl-benzene-1,4-diamine]
7 | 8 | – | Cc1cccc(Nc2[nH]nc3c2Cc2cc(Cl)ccc2-3)c1 [Compound 197, (6-Chloro-2,4-dihydro-indeno[1,2-c]pyrazol-3-yl)-m-tolyl-amine]
8 | 72 | 138 | Cc1ccc(Nc2[nH]nc3c2Cc2cc(Cl)ccc2-3)cc1 [Compound 198, (6-Chloro-2,4-dihydro-indeno[1,2-c]pyrazol-3-yl)-p-tolyl-amine]
9 | 63 | 640 | COc1cc2c(cc1OC)-c1n[nH]c(Nc3cc(C)cc(C)c3)c1C2 [Compound 206, (6,7-Dimethoxy-2,4-dihydro-indeno[1,2-c]pyrazol-3-yl)-(3,5-dimethyl-phenyl)-amine]
10 | 90 | 67.2 | CCOC(=O)c1cccc(Nc2[nH]nc3c2Cc2cc(OC)c(OC)cc2-3)c1 [Compound 210, 3-(6,7-Dimethoxy-2,4-dihydro-indeno[1,2-c]pyrazol-3-ylamino)-benzoic acid ethyl ester]
11 | 87 | 50 | COc1cc2c(cc1OC)-c1n[nH]c(Nc3cccc(SC(F)(F)F)c3)c1C2 [Compound 211, (6,7-Dimethoxy-2,4-dihydro-indeno[1,2-c]pyrazol-3-yl)-(3-trifluoromethylsulfanyl-phenyl)-amine]
12 | 84 | 775 | COc1cc2c(cc1OC)-c1n[nH]c(Nc3ccc(F)c(C(F)(F)F)c3)c1C2 [Compound 212, (6,7-Dimethoxy-2,4-dihydro-indeno[1,2-c]pyrazol-3-yl)-(4-fluoro-3-trifluoromethyl-phenyl)-amine]
13 | 82 | 2.7 | COc1cc2c(cc1OCCCN1CCN(C)CC1)Cc1c-2n[nH]c1Nc1cccc(Cl)c1 [Compound 213, (3-Chloro-phenyl)-{7-methoxy-6-[3-(4-methyl-piperazin-1-yl)-propoxy]-2,4-dihydro-indeno[1,2-c]pyrazol-3-yl}-amine]
14 | 46 | – | COc1cc2c(cc1OCCCN1CCN(C)CC1)Cc1c-2n[nH]c1Nc1ccc(F)c(Cl)c1 [Compound 214, (3-Chloro-4-fluoro-phenyl)-{7-methoxy-6-[3-(4-methyl-piperazin-1-yl)-propoxy]-2,4-dihydro-indeno[1,2-c]pyrazol-3-yl}-amine]
15 | 99 | 5.7 | COc1cccc(Nc2[nH]nc3c2Cc2cc(OCCCN4CCN(C)CC4)c(OC)cc2-3)c1 [Compound 215, {7-Methoxy-6-[3-(4-methyl-piperazin-1-yl)-propoxy]-2,4-dihydro-indeno[1,2-c]pyrazol-3-yl}-(3-methoxy-phenyl)-amine]
16 | 100 | 5.8 | COc1cc2c(cc1OCCCN1CCN(C)CC1)Cc1c-2n[nH]c1Nc1cccc(F)c1 [Compound 216, (3-Fluoro-phenyl)-{7-methoxy-6-[3-(4-methyl-piperazin-1-yl)-propoxy]-2,4-dihydro-indeno[1,2-c]pyrazol-3-yl}-amine]
17 | 51 | 3480 | CN(C)CCCOc1ccc2c(c1)Cc1c-2n[nH]c1Nc1ccc(OC(F)(F)F)cc1 [Compound 217, [6-(3-Dimethylamino-propoxy)-2,4-dihydro-indeno[1,2-c]pyrazol-3-yl]-(4-trifluoromethoxy-phenyl)-amine]
18 | 39 | – | COc1cc2c(cc1OC)-c1n[nH]c(NCc3ccc(Cl)c(Cl)c3)c1C2 [Compound 219, (3,4-Dichloro-benzyl)-(6,7-dimethoxy-2,4-dihydro-indeno[1,2-c]pyrazol-3-yl)-amine]

Row | inhibition at 10 µM [%] | IC50 [nM] | SMILES
19 | 73 | 3290 | COc1cc2c(cc1OC)-c1n[nH]c(NCC3CCCCC3)c1C2 [Compound 220, Cyclohexylmethyl-(6,7-dimethoxy-2,4-dihydro-indeno[1,2-c]pyrazol-3-yl)-amine]
20 | 71 | 1600 | COc1cc2c(cc1OC)-c1n[nH]c(Nc3ccc(S(=O)(=O)C4CCNCC4)cc3)c1C2 [Compound 221, (6,7-Dimethoxy-2,4-dihydro-indeno[1,2-c]pyrazol-3-yl)-[4-(piperidine-4-sulfonyl)-phenyl]-amine]
21 | 70 | 806 | COc1cc2c(cc1OC)-c1n[nH]c(NCc3ccc(C)cc3)c1C2 [Compound 222, (6,7-Dimethoxy-2,4-dihydro-indeno[1,2-c]pyrazol-3-yl)-(4-methyl-benzyl)-amine]
22 | 97 | 45.9 | COc1cc2c(cc1OC)-c1n[nH]c(NCc3ccccc3C)c1C2 [Compound 223, (6,7-Dimethoxy-2,4-dihydro-indeno[1,2-c]pyrazol-3-yl)-(2-methyl-benzyl)-amine]
23 | 24 | – | COc1ccccc1CNc1[nH]nc2c1Cc1cc(OC)c(OC)cc1-2 [Compound 224, (6,7-Dimethoxy-2,4-dihydro-indeno[1,2-c]pyrazol-3-yl)-(2-methoxy-benzyl)-amine]
24 | 90 | 74.4 | COc1cccc(CNc2[nH]nc3c2Cc2cc(OC)c(OC)cc2-3)c1 [Compound 225, (6,7-Dimethoxy-2,4-dihydro-indeno[1,2-c]pyrazol-3-yl)-(3-methoxy-benzyl)-amine]
25 | 90 | 1.9 | COc1cc2c(cc1OC)-c1n[nH]c(NCc3ccccc3Cl)c1C2 [Compound 230, (2-Chloro-benzyl)-(6,7-dimethoxy-2,4-dihydro-indeno[1,2-c]pyrazol-3-yl)-amine]
26 | 37 | – | COc1ccc(CNc2[nH]nc3c2Cc2cc(OC)c(OC)cc2-3)cc1 [Compound 231, (6,7-Dimethoxy-2,4-dihydro-indeno[1,2-c]pyrazol-3-yl)-(4-methoxy-benzyl)-amine]
27 | 102 | 39.6 | COc1cccc(Nc2n[nH]c3c2Cc2sccc2-3)c1 [Compound 232, (5,7-Dihydro-1-thia-4,5-diaza-cyclopenta[a]pentalen-6-yl)-(3-methoxy-phenyl)-amine]
28 | 101 | 358 | COc1cccc(Nc2[nH]nc3c2Cc2cc(F)ccc2-3)c1 [Compound 234, (6-Fluoro-2,4-dihydro-indeno[1,2-c]pyrazol-3-yl)-(3-methoxy-phenyl)-amine]
29 | 86 | 211 | Fc1cccc(Nc2[nH]nc3c2Cc2cc(F)ccc2-3)c1 [Compound 235, (6-Fluoro-2,4-dihydro-indeno[1,2-c]pyrazol-3-yl)-(3-fluoro-phenyl)-amine]
30 | 82 | 5 | Fc1ccc2c(c1)Cc1c-2n[nH]c1Nc1cc(F)ccc1F [Compound 236, (2,5-Difluoro-phenyl)-(6-fluoro-2,4-dihydro-indeno[1,2-c]pyrazol-3-yl)-amine]
31 | 88 | 50 | Fc1ccc2c(c1)Cc1c-2n[nH]c1Nc1ccc(C(F)(F)F)cc1 [Compound 237, (6-Fluoro-2,4-dihydro-indeno[1,2-c]pyrazol-3-yl)-(4-trifluoromethyl-phenyl)-amine]
32 | 87 | 419 | Fc1ccc2c(c1)Cc1c-2n[nH]c1Nc1ccc(OC(F)(F)F)cc1 [Compound 238, (6-Fluoro-2,4-dihydro-indeno[1,2-c]pyrazol-3-yl)-(4-trifluoromethoxy-phenyl)-amine]
33 | 91 | 138 | Fc1ccc2c(c1)Cc1c-2n[nH]c1Nc1cc(C(F)(F)F)cc(C(F)(F)F)c1 [Compound 239, (3,5-Bis-trifluoromethyl-phenyl)-(6-fluoro-2,4-dihydro-indeno[1,2-c]pyrazol-3-yl)-amine]
34 | 92 | 2 | Cc1cccc(Nc2[nH]nc3c2Cc2cc(F)ccc2-3)c1 [Compound 240, (6-Fluoro-2,4-dihydro-indeno[1,2-c]pyrazol-3-yl)-m-tolyl-amine]
35 | 104 | 13 | COCCCOc1cc2c(cc1OC)-c1n[nH]c(Nc3cccc(F)c3)c1C2 [Compound 242, (3-Fluoro-phenyl)-[7-methoxy-6-(3-methoxy-propoxy)-2,4-dihydro-indeno[1,2-c]pyrazol-3-yl]-amine]
36 | 101 | 0.2 | COCCCOc1cc2c(cc1OC)-c1n[nH]c(Nc3cccc(OC)c3)c1C2 [Compound 244, [7-Methoxy-6-(3-methoxy-propoxy)-2,4-dihydro-indeno[1,2-c]pyrazol-3-yl]-(3-methoxy-phenyl)-amine]
